{
  "source": "patent US20190117606A1",
  "about": "“COMPOSITIONS COMPRISING L-THEANINE, PROANTHOCYANIDIN/S AND A CATECHIN AND USES THEREOF” (priority 2016, published 2019)",
  "origin": "cited, not measured here",
  "settings": "in vivo",
  "data": [
    {"smiles": "CCNC(=O)CC[C@H](N)C(=O)O", "note": "[L-theanine, γ-glutamylethylamide]", "values": [
      {"measurement": "Crossing of the blood-brain barrier", "value": "known to cross the blood-brain barrier"},
      {"measurement": "Time to peak concentrations after consumption", "value": "about one"}
    ]}
  ]
}
